Measurements from PMC5365654, “Cyclic Boronates Inhibit All Classes of β-Lactamases” (Antimicrobial Agents and Chemotherapy, 2017).
Where two headings read alike, the source gives them in different places.

Tests used:
K. pneumoniae KP15 = assay: Broth microtiter dilution MIC, KP15; format: cell-based; details: Klebsiella pneumoniae, TEM-1 (A), SHV-11 (A), KPC-2 (A), read-out: MIC (mg/liter) for β-lactam
Protocol: (§1) The in vitro activity of cyclic boronate 2 was assessed using nine clinical isolates carrying multiple β-lactamases (Table 3). The isolates selected included Enterobacteriaceae (E. coli ST 131, Klebsiella pneumoniae ST 258, and Providencia stuartii) producing class A ESBLs (CTX-M-15, CTX-M-27, SHV-5, and VEB-1), serine carbapenemase (KPC-2) and metallo-carbapenemases (VIM-1 and VIM-2), plasmid-mediated AmpC (CMY-2), and/or carbapenem-hydrolyzing OXA-48-like oxacillinases (OXA-181 and OXA-232) in various combinations. The activity against carbapenemase-producing strains of Pseudomonas aeruginosa (VIM-2) and Acinetobacter baumannii (OXA-23) was also investigated. All isolates have previously undergone extensive phenotypic and genotypic characterization ([60]).
(§2) MICs were determined using commercial Sensititre GN4F panels (Thermo Scientific, UK; lot B55051) and Mueller-Hinton II cation-adjusted broth (Oxoid, UK), with and without the addition of cyclic boronate 2 at a fixed concentration of 10 μg/ml. Plates were incubated at 37°C for 18 h and MICs read by eye following the addition of alamarBlue reagent (Trek Diagnostics).

[1] = test system: P. aeruginosa PA12, ST 111; assay: Broth microtiter dilution MIC, PA12; format: cell-based; details: Pseudomonas aeruginosa, VIM-2 (B), read-out: MIC (mg/liter) for β-lactam
Protocol: as §1, §2

E. coli EC113, ST 131 = assay: Broth microtiter dilution MIC, EC113; format: cell-based; details: Escherichia coli, CTX-M-27 (A), read-out: MIC (mg/liter) for β-lactam
Protocol: as §1, §2

P. stuartii PS71 = assay: Broth microtiter dilution MIC, PS71; format: cell-based; details: Providencia stuartii, TEM-1 (A), SHV-5 (A), VEB-1 (A), VIM-1 (B), read-out: MIC (mg/liter) for β-lactam
Protocol: as §1, §2

E. coli EC114, ST 131 = assay: Broth microtiter dilution MIC, EC114; format: cell-based; details: Escherichia coli, TEM-1 (A), CTX-M-15 (A), OXA-1 (D), read-out: MIC (mg/liter) for β-lactam
Protocol: as §1, §2

K. pneumoniae KP58 = assay: Broth microtiter dilution MIC, KP58; format: cell-based; details: Klebsiella pneumoniae, SHV-11 (A), VIM-4 (B), read-out: MIC (mg/liter) for β-lactam
Protocol: as §1, §2

E. coli EC86 = assay: Broth microtiter dilution MIC, EC86; format: cell-based; details: CTX-M-15 (A), CMY-4 (C), OXA-181 (D); for MIC: Escherichia coli
Protocol: as §1, §2

E. coli EC107, ST 131 = assay: Broth microtiter dilution MIC, EC107; format: cell-based; details: Escherichia coli, CTX-M-15 (A), OXA-1 (D), read-out: MIC (mg/liter) for β-lactam
Protocol: as §1, §2

A. baumannii AB14 = assay: Broth microtiter dilution MIC, AB14; format: cell-based; details: Acinetobacter baumannii, OXA-23 (D), OXA-51 (D), read-out: MIC (mg/liter) for β-lactam
Protocol: as §1, §2

K. pneumoniae KP41 = assay: Broth microtiter dilution MIC, KP41; format: cell-based; details: Klebsiella pneumoniae, TEM-1, SHV-1, SHV-5, SHV-11, CTX-M-15 (A), OXA-232 (D), read-out: MIC (mg/liter) for β-lactam
Protocol: as §1, §2

CTX-M-15 = molecular target: T1, CTX-M-15 (Escherichia coli, UniProt Q9EXV5); assay: FC5 fluorogenic β-lactamase inhibition assay, CTX-M-15; format: biochemical; details: FC5 substrate, read-out: IC50, nM (mean ± SD) for CTX-M-15
T1 construct: hexahistidine (pOPINF, 3C-cleavable) (N, cleaved yes); made in house; host or cells: E. coli BL21(DE3)
Text: To investigate the extent to which cyclic boronates inhibit class C β-lactamases as well as the important class A ESBL and class D carbapenemase targets, we used a fluorogenic assay ([22]) to screen the cyclic boronates, which we have found to inhibit other β-lactamases ([21]), against them. The β-lactamases used for screening included TEM-1 and CTX-M-15 (class A), the metallo-β-lactamase (MBL) from Bacillus cereus (BcII), Verona integron-encoded metallo-β-lactamase 1 (VIM-1) (class B), AmpC from P. aeruginosa (class C), and OXA-23 and OXA-48 (class D), collectively representing all classes of β-lactamase.
Inhibition assays were carried out using FC5 as a fluorogenic reporter substrate ([22]). Enzyme concentrations and buffers were the same as those employed in steady-state kinetic studies (see Table S2 in the supplemental material). […] The concentration of FC5 employed was 10 μM for TEM-1 and 5 μM for all other enzymes. […] Data at 0 min of incubation were obtained by addition of enzyme to a premixed solution of inhibitor and substrate. Residual enzyme activity was determined for a range of inhibitor concentrations. Nonlinear regression fitting of IC50 curves was carried out using a three-parameter dose-response curve in GraphPad Prism. Errors in IC50 are expressed as [σ(log IC50)/log IC50)] × IC50.
45 Steady-state kinetics studies used a Pherastar FS microplate reader with UV-STAR® 96-well,
47 black, µclear® plates (Greiner Bio-One) for FC5 (1). Buffers employed were 100 mM
48 phosphate buffer pH 7.5, 0.01% (v/v) Triton X-100 for TEM-1, CTX-M-15 and AmpC, 100 mM
49 phosphate buffer pH 7.5, 50 mM sodium bicarbonate, 0.01% Triton X-100 for OXA-23 and
51 1 µM ZnSO4, 0.01% Triton X-100 for MBL assays. Reaction progress was monitored at 298 K
53 intensity (λex = 380 nm, λem = 480 nm) for FC5 (1). Suitable enzyme concentrations for
54 kinetic analysis were determined by monitoring changes in absorbance/fluorescence for
55 enzyme concentrations between 20 nM and 20 pM.
Kinetic constants were determined using the initial rate of hydrolysis with the
57 reaction initiated through the addition of enzyme to pre-prepared substrate concentrations.
58 Substrate concentrations ranged between 400 µM and 0.4 µM. The Michaelis-Menten
59 equation was fitted to data by non-linear regression using GraphPad Prism software to
60 calculate the Michaelis-Menten constant and the limiting rate (2).

[2] = with cyclic boronate 2 (10 mg/liter) supplementation
[3] = without cyclic boronate 2 supplementation
[4] = E. coli EC86, with cyclic boronate 2 (10 mg/liter) supplementation, read-out: MIC (mg/liter) for β-lactam
[5] = EC86, read-out: MIC (mg/liter) for β-lactam, E. coli EC86, without cyclic boronate 2 supplementation

T1 sequence (Q9EXV5 entry or part of it): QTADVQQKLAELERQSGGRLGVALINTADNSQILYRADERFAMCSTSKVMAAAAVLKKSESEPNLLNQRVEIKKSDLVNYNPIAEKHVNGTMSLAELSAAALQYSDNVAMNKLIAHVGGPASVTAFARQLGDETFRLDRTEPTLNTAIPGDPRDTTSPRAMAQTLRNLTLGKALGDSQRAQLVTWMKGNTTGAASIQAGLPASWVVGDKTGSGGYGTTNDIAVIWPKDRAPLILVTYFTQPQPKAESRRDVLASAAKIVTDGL

SMILES | MIC (K. pneumoniae KP15; [2]) | MIC (K. pneumoniae KP15; [3]) | MIC [1, 2] | MIC [1, 3] | MIC (E. coli EC113, ST 131; [2]) | MIC (E. coli EC113, ST 131; [3]) | MIC (P. stuartii PS71; [2]) | MIC (P. stuartii PS71; [3]) | MIC (E. coli EC114, ST 131; [2]) | MIC (E. coli EC114, ST 131; [3]) | MIC (K. pneumoniae KP58; [2]) | MIC (K. pneumoniae KP58; [3]) | MIC (E. coli EC86; [4]) | MIC (E. coli EC107, ST 131; [2]) | MIC (E. coli EC107, ST 131; [3]) | MIC (A. baumannii AB14; [2]) | MIC (A. baumannii AB14; [3]) | MIC (K. pneumoniae KP41; [2]) | MIC (K. pneumoniae KP41; [3]) | also measured
CC1(C)S[C@@H]2[C@H](NC(=O)[C@H](N)c3ccccc3)C(=O)N2[C@H]1C(=O)O [AMP, ampicillin] | > 16 mg/L | > 16 mg/L | > 16 mg/L | > 16 mg/L | ≤ 8 mg/L | > 16 mg/L | > 16 mg/L | > 16 mg/L | > 16 mg/L | > 16 mg/L | > 16 mg/L | > 16 mg/L | > 16 mg/L | > 16 mg/L | > 16 mg/L | > 16 mg/L | > 16 mg/L | > 16 mg/L | > 16 mg/L | MIC (mg/liter) for β-lactam (E. coli EC86; E. coli EC86, without cyclic boronate 2 supplementation): >16 mg/L
NC(=O)[C@@H]1CC[C@@H]2CN1C(=O)N2OS(=O)(=O)O [Avibactam, avibactam] | – | – | – | – | – | – | – | – | – | – | – | – | – | – | – | – | – | – | – | IC50 (CTX-M-15; preincubation 0 min): 9.9 ± 0.2 nM; IC50 (CTX-M-15; preincubation 10 min): 1.1 ± 0.1 nM; IC50 (CTX-M-15; preincubation 30 min): 0.4 ± 0.06 nM; IC50 (CTX-M-15; preincubation 60 min): 0.39 ± 0.01 nM; IC50 (CTX-M-15; preincubation 360 min): 6.4 ± 0.1 nM
CC(C)(O/N=C(\C(=O)N[C@@H]1C(=O)N2C(C(=O)[O-])=C(C[n+]3ccccc3)CS[C@H]12)c1csc(N)n1)C(=O)O [CAZ, ceftazidime] | 4 mg/L | > 16 mg/L | > 16 mg/L | > 16 mg/L | ≤ 1 mg/L | 8 mg/L | > 16 mg/L | > 16 mg/L | ≤ 1 mg/L | > 16 mg/L | 2 mg/L | > 16 mg/L | 8 mg/L | ≤ 1 mg/L | > 16 mg/L | > 16 mg/L | > 16 mg/L | > 16 mg/L | > 16 mg/L | MIC (E. coli EC86; [5]): > 16 mg/L
CO/N=C(\C(=O)N[C@@H]1C(=O)N2C(C(=O)O)=C(CSc3nc(=O)c(=O)[nH]n3C)CS[C@H]12)c1csc(N)n1 [CRO, ceftriaxone] | – | – | > 32 mg/L | > 32 mg/L | < 0.5 mg/L | > 32 mg/L | 16 mg/L | > 32 mg/L | < 0.5 mg/L | > 32 mg/L | – | – | 8 mg/L | < 0.5 mg/L | > 16 mg/L | > 32 mg/L | > 32 mg/L | – | – | MIC (E. coli EC86; [5]): > 16 mg/L
C[C@@H](O)[C@H]1C(=O)N2C(C(=O)O)=C(S[C@@H]3CN[C@H](C(=O)Nc4cccc(C(=O)O)c4)C3)[C@H](C)[C@H]12 [ERT, ertapenem] | – | – | – | – | – | – | – | – | – | – | – | – | 4 mg/L | – | – | – | – | – | – | –
Cc1nnc(SCC2=C(C(=O)O)N3C(=O)[C@@H](NC(=O)Cn4cnnn4)[C@H]3SC2)s1 [FAZ, cefazolin] | > 16 mg/L | > 16 mg/L | > 16 mg/L | > 16 mg/L | 4 mg/L | – | 4 mg/L | > 16 mg/L | 8 mg/L | – | > 16 mg/L | > 16 mg/L | – | 8 mg/L | – | > 16 mg/L | > 16 mg/L | > 16 mg/L | > 16 mg/L | –
CO/N=C(\C(=O)N[C@@H]1C(=O)N2C(C(=O)[O-])=C(C[N+]3(C)CCCC3)CS[C@H]12)c1csc(N)n1 [FEP, cefepime] | ≤ 4 mg/L | > 32 mg/L | > 32 mg/L | > 32 mg/L | ≤ 4 mg/L | – | 8 mg/L | > 32 mg/L | 8 mg/L | – | > 32 mg/L | > 32 mg/L | ≤ 4 mg/L | 8 mg/L | – | 32 mg/L | > 32 mg/L | 32 mg/L | > 32 mg/L | –
